Measurements: PMC10709440, “High-throughput ligand profile characterization in novel cell lines expressing seven heterologous insect olfactory receptors for the detection of volatile plant biomarkers” (Scientific Reports, 2023)
Like-named read-outs stand apart in the source and are kept apart here.

Experiments:
[1] = target: T1, Drosophila OR47a (Drosophila melanogaster, UniProt P81921); assay: Calcium ion fluorescence (GCaMP6) assay, OR47a stable HEK293 cell line; format: cell-based; details: for Average response / OR47a response (VUAA1-normalized) at 1 μM / OR47a response (VUAA1-normalized) at 10 μM / OR47a response (VUAA1-normalized) at 100 μM: OR47a cell line; for Average response: mean of biological replicates; for OR47a response (VUAA1-normalized) at 1 μM: VOC concentration 1 μM; for OR47a response (VUAA1-normalized) at 10 μM: VOC concentration 10 μM; for OR47a response (VUAA1-normalized) at 100 μM: VOC concentration 100 μM
T1 construct: expressed in transfected cells
T1 sequence (P81921 1-385): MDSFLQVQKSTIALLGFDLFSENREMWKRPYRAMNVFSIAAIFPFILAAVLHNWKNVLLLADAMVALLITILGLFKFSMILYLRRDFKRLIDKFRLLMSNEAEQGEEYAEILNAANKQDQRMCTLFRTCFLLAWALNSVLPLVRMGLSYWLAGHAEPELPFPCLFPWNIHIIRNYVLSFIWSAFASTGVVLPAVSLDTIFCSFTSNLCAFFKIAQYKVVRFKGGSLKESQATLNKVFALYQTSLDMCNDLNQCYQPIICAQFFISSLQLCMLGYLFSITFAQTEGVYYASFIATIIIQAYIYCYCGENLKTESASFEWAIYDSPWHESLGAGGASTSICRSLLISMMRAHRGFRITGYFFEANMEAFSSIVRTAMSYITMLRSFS
T1 sequence (Q9VNB5 1-486 partner): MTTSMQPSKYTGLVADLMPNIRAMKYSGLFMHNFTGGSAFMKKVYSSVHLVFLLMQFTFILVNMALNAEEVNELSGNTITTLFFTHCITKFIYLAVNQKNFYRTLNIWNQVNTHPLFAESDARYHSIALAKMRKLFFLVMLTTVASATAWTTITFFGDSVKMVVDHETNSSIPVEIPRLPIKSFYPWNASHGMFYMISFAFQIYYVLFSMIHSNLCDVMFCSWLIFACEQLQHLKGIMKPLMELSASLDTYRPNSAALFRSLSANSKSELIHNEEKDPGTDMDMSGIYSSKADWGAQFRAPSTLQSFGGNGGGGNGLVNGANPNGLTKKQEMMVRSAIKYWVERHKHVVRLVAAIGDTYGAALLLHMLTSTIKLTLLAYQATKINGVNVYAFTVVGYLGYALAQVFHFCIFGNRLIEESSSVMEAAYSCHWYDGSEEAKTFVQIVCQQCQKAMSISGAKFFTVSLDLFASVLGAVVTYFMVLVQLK
Outline: (§1)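 HEK293 lines stably expressing each Drosophila OR with GCaMP6, doxycycline-induced (1 μg/mL) 48 or 72 h. Fluorescence recorded 5 s baseline then 30 s after VOC injection at pH 7.3; ΔF=(FMAX−F0)/F0, normalized to 50 µM VUAA1 response per line, triplicate wells averaged; concentration series 0.01–100 μM.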

[2] = target: T2, Drosophila OR98a (Drosophila melanogaster, UniProt Q9VAZ3); assay: Calcium ion fluorescence (GCaMP6) assay, OR98a stable HEK293 cell line; format: cell-based; details: for OR98a response (VUAA1-normalized) at 1 μM / OR98a response (VUAA1-normalized) at 10 μM / OR98a response (VUAA1-normalized) at 100 μM: OR98a cell line; for OR98a response (VUAA1-normalized) at 1 μM: VOC concentration 1 μM; for OR98a response (VUAA1-normalized) at 10 μM: VOC concentration 10 μM; for OR98a response (VUAA1-normalized) at 100 μM: VOC concentration 100 μM
T2 construct: expressed in transfected cells
T2 sequence (Q9VAZ3 1-397): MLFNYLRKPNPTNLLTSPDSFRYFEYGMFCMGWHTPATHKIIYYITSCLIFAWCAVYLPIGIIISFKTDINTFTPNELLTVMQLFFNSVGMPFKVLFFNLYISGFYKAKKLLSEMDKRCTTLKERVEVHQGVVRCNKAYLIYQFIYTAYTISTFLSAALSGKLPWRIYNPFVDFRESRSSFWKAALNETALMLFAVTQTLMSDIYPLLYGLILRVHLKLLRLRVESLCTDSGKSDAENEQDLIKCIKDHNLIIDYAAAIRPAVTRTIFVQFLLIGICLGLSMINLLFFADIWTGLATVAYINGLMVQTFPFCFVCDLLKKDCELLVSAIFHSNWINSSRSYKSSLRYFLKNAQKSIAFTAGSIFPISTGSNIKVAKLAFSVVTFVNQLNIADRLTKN
T2 sequence (Q9VNB5 1-486 partner): T1 sequence (Q9VNB5 1-486 partner)
Outline: as §1

[3] = HEK293, read-out: OR47a Average response (VUAA1-normalized)
[4] = HEK293, read-out: OR47a response (VUAA1-normalized response)
[5] = concentration 1, normalized fluorescence change, values below 0.05 threshold given as 0
[6] = concentration 10, normalized fluorescence change, values below 0.05 threshold given as 0
[7] = concentration 100, normalized fluorescence change, values below 0.05 threshold given as 0
[8] = HEK293, read-out: Average response
[9] = HEK293, read-out: OR98a response (VUAA1-normalized response)
[10] = ligand concentration 1 (unit not given), threshold 0.05, below shown as 0
[11] = ligand concentration 10 (unit not given), threshold 0.05, below shown as 0
[12] = ligand concentration 100 (unit not given), threshold 0.05, below shown as 0
[13] = HEK293, read-out: OR98a Average response (VUAA1-normalized)
[14] = ligand concentration 1 (unit not given), 0.05 threshold, values below shown as 0
[15] = ligand concentration 10 (unit not given), 0.05 threshold, values below shown as 0
[16] = ligand concentration 100 (unit not given), 0.05 threshold, values below shown as 0

Compound | activation at 1 µM [1, 4] | activation at 10 µM [1, 4] | activation at 100 µM [1, 4] | Average response ([1]; odorant cc. 1 µM) | Average response ([1]; odorant cc. 10 µM) | Average response ([1]; odorant cc. 100 µM) | DF norm AVERAGE OR47a [1, 5] | DF norm AVERAGE OR47a [1, 6] | DF norm AVERAGE OR47a [1, 7] | activation at 1 µM [2, 8] | activation at 10 µM [2, 8] | activation at 100 µM [2, 8] | activation at 1 µM [2, 9] | activation at 10 µM [2, 9] | activation at 100 µM [2, 9] | DF norm AVERAGE OR98a [2, 5] | DF norm AVERAGE OR98a [2, 6] | DF norm AVERAGE OR98a [2, 7] | also measured
CCCCC(C)=O [2-hexanone] | 0% | 0% | 16% | 0.0368 | 0.00 | 0.16 | 0 | 0 | 0.1643 | 3% | 4.36% | 3.5% | 0% | 0% | 0% | 0 | 0 | 0 | activation at 1 µM [1, 3]: 4%; activation at 10 µM [1, 3]: 0%; activation at 100 µM [1, 3]: 16%
COc1cccc(OC)c1 [1,3-dimethoxy benzene] | 0% | 0% | 0% | 0.00 | 0.00 | 0.0217 | 0 | 0 | 0 | 0% | 1.66% | 3.31% | 0% | 0% | 0% | 0 | 0 | 0 | 
C=C1CC[C@H]2O[C@]2(C)CC[C@@H]2[C@@H]1CC2(C)C [(-)-caryophyllene oxide] | 0% | 0% | 0% | 0.00 | 0.00 | 0.00 | 0 | 0 | 0 | 0% | 4% | 0% | 0% | 0% | 0% | 0 | 0 | 0 | 
CC1=CC[C@@H](C(C)(C)O)CC1 [alpha-terpineol] | 0% | 0% | 0% | 0.00 | 0.00 | 0.00 |  |  |  | 0% | 1.81% | 6.45% | 0% | 0% | 6.45% |  |  |  | DF norm AVERAGE OR47a [1, 10]: 0; DF norm AVERAGE OR47a [1, 11]: 0; DF norm AVERAGE OR47a [1, 12]: 0; DF norm AVERAGE OR98a [2, 10]: 0; DF norm AVERAGE OR98a [2, 11]: 0; DF norm AVERAGE OR98a [2, 12]: 0.06455
CCCCCC(O)CC (stereo not drawn) [3-octanol] | 0% | 0% | 9% | 0.00 | 0.00 | 0.09 | 0 | 0 | 0.08889 | 1.89% | 3.68% | 13% | 0% | 0% | 13% | 0 | 0 | 0.1274 | activation at 1 µM [2, 13]: 2%; activation at 10 µM [2, 13]: 4%; activation at 100 µM [2, 13]: 13%
CCCCCCCCC=O [nonanal] |  |  |  | 0.00 | 0.00 | 0.00 |  |  |  | 0% | 0% | 5.5% |  |  |  |  |  |  | OR47a response (VUAA1-normalized) at 1 μM [1]: 0.00; OR47a response (VUAA1-normalized) at 10 μM [1]: 0.00; OR47a response (VUAA1-normalized) at 100 μM [1]: 0.00; DF norm AVERAGE OR47a [1, 10]: 0; DF norm AVERAGE OR47a [1, 11]: 0; DF norm AVERAGE OR47a [1, 12]: 0; OR98a response (VUAA1-normalized) at 1 μM [2]: 0.00; OR98a response (VUAA1-normalized) at 10 μM [2]: 0.00; OR98a response (VUAA1-normalized) at 100 μM [2]: 0.055; DF norm AVERAGE OR98a [2, 10]: 0; DF norm AVERAGE OR98a [2, 11]: 0; DF norm AVERAGE OR98a [2, 12]: 0.05502
C=Cc1ccccc1 [styrene] |  |  |  | 0.0246 | 0.00 | 0.0286 |  |  |  | 4.43% | 0% | 1.16% |  |  |  |  |  |  | OR47a response (VUAA1-normalized) at 1 μM [1]: 0.00; OR47a response (VUAA1-normalized) at 10 μM [1]: 0.00; OR47a response (VUAA1-normalized) at 100 μM [1]: 0.00; DF norm AVERAGE OR47a [1, 14]: 0; DF norm AVERAGE OR47a [1, 15]: 0; DF norm AVERAGE OR47a [1, 16]: 0; OR98a response (VUAA1-normalized) at 1 μM [2]: 0.00; OR98a response (VUAA1-normalized) at 10 μM [2]: 0.00; OR98a response (VUAA1-normalized) at 100 μM [2]: 0.00; DF norm AVERAGE OR98a [2, 14]: 0; DF norm AVERAGE OR98a [2, 15]: 0; DF norm AVERAGE OR98a [2, 16]: 0
